Test results reported in patent US8901125B2, “Substituted bicyclic alkoxy pyrazole analogs as allosteric modulators of mGluR5 receptors” (Vanderbilt University, priority 2012, dated 2014).

Columns and labels:
[1] = biological target: human mGluR5a receptor (Homo sapiens, UniProt P41594); assay: Cell-based functional assay (Ca2+ mobilization, FDSS), potentiation of glutamate EC20 response; conditions: H10H cell line; for Emax: maximum % effect in the concentration-response curve as percent of maximal glutamate response, glutamate EC20; for EC50: potentiation in presence of glutamate EC20, concentration in mol/L
Source text: Human mGluR5a cDNA in pCMV6-XL6 mammalian expression plasmid was purchased from OriGene Technologies, Inc. (catalogue number SC326357) and subcloned into pcDNA3.1(−). Human embryonic kidney (HEK)293A cells were then transfected with human mGluR5a pcDNA3.1(−) using LipofectAmine-2000 (Invitrogen) and monoclones were selected and tested for functional response using a Ca^2+ mobilization assay. Monoclones were named for the species (“H” for human) plus the location on the plate (e.g. “10H”).
HEK cells transfected with the human mGluR5a receptor (H10H or H12H cell line) were plated at 15,000 cells/well in clear-bottomed poly-D-lysinecoated assay plates (BD Falcon) in glutamate-glutamine-free growth medium and incubated overnight at 37° C. and 5% CO2. Cell-lines used were either the H10H or H12H cell-lines expressing the human mGluR5 receptor. The following day, the growth medium was removed and the cells were washed with assay buffer containing 1× Hank's balanced salt solution (Invitrogen, Carlsbad, Calif.), 20 mM HEPES, 2.5 mM probenecid, pH 7.4 and left with 20 μL of this reagent. Following this step, the cells were loaded with calcium indicator dye, fluo-4 AM, to a final concentration of 2 μM and incubated for 40-45 min at 37° C. The dye solution was removed and replaced with assay buffer. Cell plates were held for 10-15 min at room temperature and were then loaded into the Functional Drug Screening System 6000 (FDSS 6000, Hamamatsu, Japan).
After establishment of a fluorescence baseline for about 3 seconds, the compounds of the present invention were added to the cells, and the response in cells was measured. 2.3 minutes later an EC20 concentration of the mGluR5 receptor agonist glutamate was added to the cells, and the response of the cells was measured for about 1.7 minutes. All test compounds were dissolved and diluted to a concentration of 10 mM in 100% DMSO and then serially diluted into assay buffer for a 2× stock solution in 0.6% DMSO; stock compounds were then added to the assay for a final DMSO concentration of 0.3% after the first addition to the assay well. Calcium fluorescence measures were recorded as fold over basal fluorescence; raw data was then normalized to the maximal response to glutamate. Potentiation of the agonist response of the mGluR5 receptor in the present invention was observed as an increase in response to submaximal concentrations of glutamate in the presence of compound compared to the response to glutamate in the absence of compound.
The concentration-response curves of compounds of the present invention, obtained in the presence of EC20 of mGluR5 receptor agonist glutamate to determine positive allosteric modulation, were generated using Microsoft Excel with IDBS XLFit add-ins. The raw data file containing all time points was used as the data source in the analysis template. This was saved by the FDSS as a tab-delimited text file. Data were normalized using a static ratio function (F/F0) for each measurement of the total 350 values per well divided by each well's initial value. Data was then reduced as to peak amplitudes (Max Initial Min) using a time range that starts approximately 1 second after the glutamate EC20 addition and continues for approximately 40 seconds. This is sufficient time to capture the peak amplitude of the cellular Calcium response. Individual amplitudes were expressed as % EMax by multiplying each amplitude by 100 and then dividing the product by the mean of the amplitudes derived from the glutamate ECMax-treated wells. pEC50 values for test compounds were generated by fitting the normalized values versus the log of the test compound concentration (in mol/L) using a 4 parameter logistic equation where none of the parameters were fixed. Each of the three values collected at each concentration of test compound were weighted evenly. Individual values falling outside the 95% prediction limits of the curve fit were automatically excluded from the fit. […]

Chain of human mGluR5a receptor (P41594 21-1180 isoform P41594-2 limits assumed): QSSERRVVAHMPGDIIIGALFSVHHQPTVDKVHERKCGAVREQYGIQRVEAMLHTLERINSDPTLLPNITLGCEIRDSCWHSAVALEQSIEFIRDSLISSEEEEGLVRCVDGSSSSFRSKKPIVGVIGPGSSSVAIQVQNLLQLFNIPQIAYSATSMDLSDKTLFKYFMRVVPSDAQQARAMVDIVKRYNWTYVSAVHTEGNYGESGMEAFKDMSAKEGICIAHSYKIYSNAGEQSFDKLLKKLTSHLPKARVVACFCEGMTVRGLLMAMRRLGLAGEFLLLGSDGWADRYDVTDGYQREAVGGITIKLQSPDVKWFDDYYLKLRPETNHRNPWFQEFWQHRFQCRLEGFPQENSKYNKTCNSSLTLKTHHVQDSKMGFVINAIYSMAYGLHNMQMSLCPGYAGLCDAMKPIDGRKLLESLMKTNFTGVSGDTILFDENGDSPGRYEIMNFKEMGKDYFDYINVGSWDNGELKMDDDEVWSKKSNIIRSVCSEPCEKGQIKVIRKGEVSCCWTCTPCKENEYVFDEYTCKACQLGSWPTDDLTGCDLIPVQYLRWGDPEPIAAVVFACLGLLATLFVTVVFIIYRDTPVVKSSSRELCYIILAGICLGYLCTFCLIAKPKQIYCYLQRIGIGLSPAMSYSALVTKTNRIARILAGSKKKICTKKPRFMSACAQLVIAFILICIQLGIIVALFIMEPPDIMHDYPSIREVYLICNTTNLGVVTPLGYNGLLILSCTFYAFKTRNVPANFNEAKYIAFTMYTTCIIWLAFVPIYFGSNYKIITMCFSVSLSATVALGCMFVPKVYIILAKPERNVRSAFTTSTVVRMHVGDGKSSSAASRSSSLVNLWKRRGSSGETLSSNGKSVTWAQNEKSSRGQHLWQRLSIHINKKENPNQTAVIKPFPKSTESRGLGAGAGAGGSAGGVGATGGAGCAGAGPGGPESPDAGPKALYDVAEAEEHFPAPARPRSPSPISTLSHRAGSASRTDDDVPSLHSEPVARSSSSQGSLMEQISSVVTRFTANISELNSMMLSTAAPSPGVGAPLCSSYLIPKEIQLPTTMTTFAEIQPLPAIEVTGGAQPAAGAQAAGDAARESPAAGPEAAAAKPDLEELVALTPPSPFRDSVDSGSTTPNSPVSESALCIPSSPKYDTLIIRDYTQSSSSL

SMILES | Emax [1] | EC50 [1] | melting point
CC1CN(c2ccc(F)cc2)C(=O)c2cc(OCc3ccccc3)nn21 (single isomer, unassigned) [Example B10] | 53% | 174 nM | 134.8 °C
CC1CN(Cc2ccccc2)C(=O)c2cc(OCc3ccccc3)nn21 (single isomer, unassigned) [Example B62] | 61% | 102 nM | 
O=C1c2cc(OCc3ccccc3)nn2CCN1c1ccc(F)cc1 [Example B1, 2-(benzyloxy)-5-(4-fluorophenyl)-6,7-dihydropyrazolo[1,5-a]pyrazin-4(5H)-one] | 54% | 182 nM | 
COc1nccc(N2CCn3nc(OCc4ccccc4)cc3C2=O)n1 [Example B2, 2-(benzyloxy)-5-(2-methoxypyrimidin-4-yl)-6,7-dihydropyrazolo[1,5-a]pyrazin-4(5H)-one] | 57% | 661 nM | 160.6 °C
O=C1c2cc(OCc3ccccc3)nn2CCN1c1cccc(C2CC2)n1 [Example B3, 2-(benzyloxy)-5-(6-cyclopropylpyridin-2-yl)-6,7-dihydropyrazolo[1,5-a]pyrazin-4(5H)-one] | 59% | 112 nM | 146.2 °C
O=C1c2cc(OCc3ccccc3F)nn2CCN1c1ccc(F)cc1 [Example B4, 2-[(2-fluorobenzyl)oxy]-5-(4-fluorophenyl)-6,7-dihydropyrazolo[1,5-a]pyrazin-4(5H)-one] | 63% | 141 nM | 119 °C
O=C1c2cc(OCc3ccccc3)nn2CCN1c1cccc(F)c1 [Example B5] | 44% | 115 nM | 131.5 °C
O=C1c2cc(OCc3ccccc3)nn2CCN1c1ccccc1F [Example B6] | 44% | 229 nM | 151.9 °C
Cc1cc(N2CCn3nc(OCc4ccccc4)cc3C2=O)ccc1F [Example B7] | 47% | 102 nM | 209.8 °C
COc1cc(N2CCn3nc(OCc4ccccc4)cc3C2=O)ccc1F [Example B8] | 45% | 132 nM | 145.3 °C
C[C@@H]1Cn2nc(OCc3ccccc3)cc2C(=O)N1c1ccc(F)cc1 [Example B9] | 52% | 87.1 nM | 229.9 °C
O=C1c2cc(OCc3ccccc3)nn2CCN1c1ccccn1 [Example B11] | 25% | > 10000 nM | 153.5 °C
O=C1c2cc(OCc3ccccc3)nn2CCN1c1cccnc1 [Example B12] | 17% | > 30200 nM | 147.8 °C
O=C1c2cc(OCc3ccccc3)nn2CCN1c1ccncc1 [Example B13] | 37% | > 10000 nM | 167.2 °C
Cc1cccc(N2CCn3nc(OCc4ccccc4)cc3C2=O)n1 [Example B14] | 53% | 174 nM | 152.1 °C
O=C1c2cc(OCc3ccccc3)nn2CCN1c1ccc(F)cn1 [Example B16] | 45% | > 10000 nM | 145.5 °C
Cc1cc(N2CCn3nc(OCc4ccccc4)cc3C2=O)ncc1F [Example B18] | 45% | 339 nM | 145.2 °C
Cc1nccc(N2CCn3nc(OCc4ccccc4)cc3C2=O)n1 [Example B19] | 47% | 871 nM | 182.8 °C
COc1nc(N2CCn3nc(OCc4ccccc4)cc3C2=O)ncc1F [Example B21] | 55% | 251 nM | 223 °C
Cc1cncc(N2CCn3nc(OCc4ccccc4)cc3C2=O)n1 [Example B22] | 43% | 708 nM | 215.2 °C
N#Cc1cccc(COc2cc3n(n2)CCN(c2ccc(F)cc2)C3=O)c1 [Example B27] | 31% | 148 nM | 147.9 °C

SMILES | Emax [1] | EC50 [1] | melting point
COc1ccccc1COc1cc2n(n1)CCN(c1ccc(F)cc1)C2=O [Example B29] | 36% | 1200 nM | 140.2 °C
COc1ccc(COc2cc3n(n2)CCN(c2ccc(F)cc2)C3=O)cc1 [Example B30] | 28% | > 30200 nM | 164.6 °C
O=C1c2cc(OCc3ccncc3)nn2CCN1c1ccc(F)cc1 [Example B31] | 26% | > 30200 nM | 172.9 °C
O=C1c2cc(OCc3ccc(F)cc3)nn2CCN1c1ccc(F)cc1 [Example B32] | 18% | > 30200 nM | 155.8 °C
COc1cccc(COc2cc3n(n2)CCN(c2ccc(F)cc2)C3=O)c1 [Example B33] | 18% | > 30200 nM | 105.1 °C
O=C1c2cc(OCc3ccccn3)nn2CCN1c1ccc(F)cc1 [Example B34] | 23% | > 30200 nM | 
O=C1c2cc(OCc3cccnc3)nn2CCN1c1ccc(F)cc1 [Example B35] | 12% | > 30200 nM | 
Cc1cccc(COc2cc3n(n2)CCN(c2ccc(F)cc2)C3=O)n1 [Example B36] | 27% | > 30200 nM | 158.5 °C
O=C1c2cc(OCc3ccccc3)nn2CCN1CC1CC1 [Example B44, 2-(benzyloxy)-5-(cyclopropylmethyl)-6,7-dihydropyrazolo[1,5-a]pyrazin-4(5H)-one] | 26% | ≥ 30200 nM | 
O=C1c2cc(OCc3ccccc3)nn2CCCN1c1ccc(F)cc1 [Example B49, 2-(benzyloxy)-5-(4-fluorophenyl)-5,6,7,8-tetrahydro-4H-pyrazolo[1,5-a][1,4]diazepin-4-one] | 47% | 550 nM | 140.2 to 140.7 °C
CC1(CN2CCn3nc(OCc4ccccc4)cc3C2=O)COC1 [Example B55] | 37% |  | 
O=C1c2cc(OCc3ccccc3)nn2CCN1CC1CCC1 [Example B56] | 52% | 1070 nM | 
O=C1c2cc(OCc3ccccc3)nn2CCCN1Cc1ccccc1 [Example B58, 5-benzyl-2-(benzyloxy)-5,6,7,8-tetrahydro-4H-pyrazolo[1,5-a][1,4]diazepin-4-one] | 57% | 380 nM | 
C[C@@H]1Cn2nc(OCc3ccccc3)cc2C(=O)N1Cc1ccccc1 [Example B61] | 59% | 257 nM | 
COc1cc(F)cc(CN2CCn3nc(OCc4ccccc4)cc3C2=O)c1 [Example B63] | 62% | 646 nM | 
COc1cccc(CN2CCn3nc(OCc4ccccc4)cc3C2=O)c1F [Example B66] | 63% | 363 nM | 
COc1cccc(CN2CCn3nc(OCc4ccccc4)cc3C2=O)c1Cl [Example B67] | 63% | 115 nM | 
COc1ccc(F)cc1CN1CCn2nc(OCc3ccccc3)cc2C1=O [Example B68] | 58% | 178 nM | 
O=C1c2cc(OCc3ccccc3)nn2CCN1CC1CC(F)(F)C1 [Example B71] | 59% | 692 nM | 
O=C1c2cc(OCc3ccccc3)nn2CCCN1CC1CC1(F)F (centres unmarked) [Example B73] | 20% | > 30200 nM | 
